Source: patent US20080108686A1, “N-(Ortho-Phenyl)-1-Methyl-3-Difluoromethylpyrazole-4-Carboxanilides And Their Use As Fungicides” (BASF Aktiengesellschaft, priority 2004, published 2008)

Columns and labels:
Botrytis cinerea = assay: Use Example 2a: activity against gray mold on bell pepper leaves, protective application; type: in vivo; details: protective spray 1 day before inoculation, bell pepper seedlings, assessed after 5 days, untreated 90%
Description: (§1) The active compounds, separately or jointly, were prepared as a stock solution comprising 25 mg of active compound which was made up to 10 ml using a mixture of acetone and/or DMSO and the emulsifier Uniperol® EL (welting agent having an emulsifying and dispersing action based on ethoxylated alkylphenols) in a ratio by volume of solvent/emulsifier of 99:1. The mixture was then made up to 100 ml with water. This stock solution was diluted with the solvent/emulsifier/water mixture described to give the concentration of active compound stated below. Alternatively, the active compounds were employed as a commercial finished formulation and diluted with water to the stated concentration of active compound.
Activity against gray mold on bell pepper leaves caused by Botrytis cinerea, protective application Bell pepper seedlings of the cultivar “Neusiedler Ideal Elite” were, after 2-3 leaves were well developed, sprayed to runoff point with an aqueous suspension having the concentration of active compound stated below. The next day, the treated plants were inoculated with a spore suspension of Botrytis cinerea which comprised 1.7×10^6 spores/ml in a 2% strength aqueous biomalt solution. The test plants were then placed into a dark climatized chamber at 22-24° C. and high atmospheric humidity. After 5 days, the extent of the fungal infection on the leaves could be determined visually in %.

Leptosphaeria nodorum = assay: Comparative Test 2: activity against leaf blotch on wheat; type: in vivo; details: protective spray 1 day before inoculation, wheat cultivar Kanzler, assessed after 8 days, untreated 80%
Description: as §1
Activity Against Leaf Blotch on Wheat Caused by Leptosphaeria nodorum
Comp. 35 of EP-A 0 589301 was compared to the compounds 67.1-67.14 according to the invention of table 67. Pots of wheat plants of the cultivar “Kanzler” was sprayed to runoff point with an aqueous suspension having the concentration of active compound stated below. The next day, the pots were inoculated with an aqueous spore suspension of Leptosphaeria nodorum (syn. Stagonospora nodorum, Septoria nodorum). The plants were then placed into a chamber at 20° C. and maximum atmospheric humidity. After 8 days, the leaf blotch on the untreated but infected control plants had developed to such an extent that the infection could be determined visually in %.

Puccinia recondita [1] = assay: Use Example 1: curative activity against brown rust of wheat; type: in vivo; details: curative spray 1 day after inoculation, wheat cultivar Kanzler, assessed after 7 days, untreated 90%
Description: as §1
(§2) Curative Activity Against Brown Rust of Wheat Caused by Puccinia recondita
Leaves of polted wheat seedlings of the cultivar “Kanzler” were inoculated with a spore suspension of brown rust (Puccinia recondita). The pots were then placed into a chamber with high atmospheric humidity (90-95%) at 20-22° C. for 24 hours. During this time, the spores germinated and the germ tubes penetrated into the leaf tissue. The next day, the infected plants were sprayed to runoff point with an aqueous suspension having the concentration of active compound stated below. The suspension or emulsion was prepared as described above. After the spray coating had dried on, the test plants were cultivated in a greenhouse at temperatures between 20 and 22° C. and at 65 to 70% relative atmospheric humidity for 7 days. The extent of the rust fungus development on the leaves was then determined.

Puccinia recondita [2] = assay: Comparative Test 1: curative activity against brown rust of wheat; type: in vivo; details: curative spray 1 day after inoculation, wheat cultivar Kanzler, assessed after 7 days, comparison with Comp. 35 of EP-A 0 589301, untreated 90%
Description: as §1, §2
Comp. 35 of EP-A 0 589301 was compared to the compounds 67.1-67.14 according to the invention of table 67. Leaves of potted wheat seedlings of the cultivar “Kanzler” were inoculated with a spore suspension of brown rust (Puccinia recondita). The pots were then placed into a chamber with high atmospheric humidity (90-95%) at 20-22° C. for 24 hours. During this time, the spores germinated and the germ tubes penetrated into the leaf tissue. The next day, the infected plants were sprayed to runoff point with an aqueous suspension having the concentration of active compound stated below. The suspension or emulsion was prepared as described above. After the spray coating had dried on, the test plants were cultivated in a greenhouse at temperatures between 20 and 22° C. and at 65 to 70% relative atmospheric humidity for 7 days. The extent of the rust fungus development on the leaves was then determined.

Pyrenophora teres = assay: Use Example 2b: activity against net blotch of barley, 1 day protective application; type: in vivo; details: protective spray 24 hours before inoculation, barley seedlings, assessed after 6 days, untreated 90%
Description: as §1
Activity Against Net Blotch of Barley Caused byPyrenophora teres, 1 day Protective Application
Leaves of potted barley seedlings were sprayed to runoff point with an aqueous suspension having the concentration of active compound stated below. 24 hours after the spray coating had dried on, the test plants were inoculated with an aqueous spore suspension of Pyrenophora [syn. Drechslera] teres, the net blotch pathogen. The test plants were then placed into a greenhouse at temperatures between 20 and 24° C. and 95 to 100% relative atmospheric humidity. After 6 days, the extent of the development of the disease was determined visually in % infection of the total leaf area.

SMILES | Infection at BOTRCI P1 at 250 ppm (%) (Botrytis cinerea) | Infection at LEPTNO P1 at 250 ppm (%) (Leptosphaeria nodorum) | Infection at PUCCRT K1 at 250 ppm (%) (Puccinia recondita [1]) | Infection at PUCCRT K1 at 250 ppm (%) (Puccinia recondita [2]) | melting point [°C] | Infection at PYRNTE P1 at 250 ppm (%) (Pyrenophora teres)
Cn1cc(C(=O)Nc2ccccc2-c2cc(Cl)cc(Cl)c2)c(C(F)F)n1 [Compound 67.1] | 1 | 25 | 0 | 0 |  | 
Cn1cc(C(=O)Nc2ccccc2-c2ccc(F)c(Cl)c2)c(C(F)F)n1 [Compound 67.2] | 0 | 3 | 0 | 0 |  | 
Cn1cc(C(=O)Nc2ccccc2-c2ccc(F)c(F)c2)c(C(F)F)n1 [Compound 67.3] | 1 | 7 | 0 | 0 |  | 
Cn1cc(C(=O)Nc2ccccc2-c2ccc(Cl)c(Cl)c2)c(C(F)F)n1 [Compound 67.4, 3-difluoromethyl-1-methyl-N-(ortho-(3,4-dichlorophenyl)phenyl)-pyrazole-4-carboxamide] | 0 | 3 | 0 | 0 | 129 to 130 | 
Cn1cc(C(=O)Nc2ccccc2-c2ccc(Cl)cc2Cl)c(C(F)F)n1 [Compound 67.5] |  | 15 | 0 | 0 |  | 
Cn1cc(C(=O)Nc2ccccc2-c2cc(F)ccc2F)c(C(F)F)n1 [Compound 67.6] | 10 | 3 | 0 | 0 |  | 
Cn1cc(C(=O)Nc2ccccc2-c2ccc(Cl)cc2F)c(C(F)F)n1 [Compound 67.7] |  | 0 | 0 | 0 |  | 5
Cc1cc(Cl)ccc1-c1ccccc1NC(=O)c1cn(C)nc1C(F)F [Compound 67.8] | 0 |  | 0 | 0 |  | 
Cc1cc(-c2ccccc2NC(=O)c2cn(C)nc2C(F)F)ccc1Cl [Compound 67.9] | 0 |  | 3 | 3 |  | 
Cc1cc(F)ccc1-c1ccccc1NC(=O)c1cn(C)nc1C(F)F [Compound 67.10] | 0 | 15 | 0 | 0 |  | 
Cc1cc(-c2ccccc2NC(=O)c2cn(C)nc2C(F)F)ccc1F [Compound 67.11] | 0 |  | 0 | 0 |  | 
Cn1cc(C(=O)Nc2ccccc2-c2ccc(Cl)c(F)c2)c(C(F)F)n1 [Compound 67.12] | 7 | 3 | 0 | 0 |  | 
Cn1cc(C(=O)Nc2ccccc2-c2ccc(F)cc2F)c(C(F)F)n1 [Compound 67.13] |  | 3 | 0 | 0 |  | 5
COc1ccc(-c2ccccc2NC(=O)c2cn(C)nc2C(F)F)c(C)c1 [Compound 67.14] |  | 5 | 0 | 0 |  | 
Cn1cc(C(=O)Nc2ccccc2-c2ccccc2)c(C(F)F)n1 [reference compound] |  | 80 |  | 25 |  | 
